Source: patent US7314870B2, “Compounds, their preparation and use” (Neurosearch A/S, priority 2001, dated 2008)
Counter-ions that a name gives are not always drawn. Like-named read-outs stand apart in the source and are kept apart here.

Columns and labels:
serotonin transporter = biological target: T1, serotonin transporter (Rattus norvegicus, UniProt P31652); experiment: In vitro inhibition of 3H-5-hydroxytryptamine uptake in cortical synaptosomes; format: biochemical; conditions: 1 nM 3H-5-HT, 30 minutes at 37° C
T1 construct: Cerebral cortices from male Wistar rats (150-200 g) are homogenized; from tissue; host or cells: rat cerebral cortex synaptosomes (P2 pellet)
Method: In Vitro Inhibition of ^3H-5-Hydroxytyptamine Uptake in Cortical Synaptosomes
Serotonin transporters/uptake sites on nerve terminals presumably function to terminate neuronal signaling by removing serotonin from the synaptic cleft. The activity of the serotonin transporter integral protein can be measured in vitro by synaptosomal uptake of ^3H-5-hydroxytryptamine (5-HT, serotonin).
Preparations are performed at 0-4° C. Cerebral cortices from male Wistar rats (150-200 g) are homogenized for 5-10 seconds in 100 volumes of ice-cold 0.32 M sucrose containing 1 mM pargyline, using a motor driven teflon pestle in a glass homogenizing vessel. Monoamine oxidase activity is inhibited in the presence of pargyline.
The homogenate is subjected to centrifugation at 1000×g for 10 minutes. The resulting supernatant is then centrifuged at 27,000×g for 50 minutes and the supernatant is discarded. […]
Aliquots of 4.0 ml tissue suspension are added to 100 μl of test solution and 100 μl of ^3H-5-HT (1 nM, final concentration), mixed and incubated for 30 minutes at 37° C. Non-specific uptake is determined using Citalopram (1 μM, final concentration, available from Lundbeck, Denmark). […]
The amount of radioactivity on the filters is determined by conventional liquid scintillation counting. Specific uptake is calculated as the difference between total uptake and non-specific uptake. […]

[1] = biological target: T2, α7-subtype of nicotinic receptors (Rattus norvegicus, UniProt Q05941); experiment: In vitro inhibition of 3H-α-bungarotoxine binding in rat brain
T2 construct: Cerebral cortices from male Wistar rats (150-250 g) are homogenised; from tissue; host or cells: rat cerebral cortex membrane homogenate
T2 sequence (Q05941 23-502): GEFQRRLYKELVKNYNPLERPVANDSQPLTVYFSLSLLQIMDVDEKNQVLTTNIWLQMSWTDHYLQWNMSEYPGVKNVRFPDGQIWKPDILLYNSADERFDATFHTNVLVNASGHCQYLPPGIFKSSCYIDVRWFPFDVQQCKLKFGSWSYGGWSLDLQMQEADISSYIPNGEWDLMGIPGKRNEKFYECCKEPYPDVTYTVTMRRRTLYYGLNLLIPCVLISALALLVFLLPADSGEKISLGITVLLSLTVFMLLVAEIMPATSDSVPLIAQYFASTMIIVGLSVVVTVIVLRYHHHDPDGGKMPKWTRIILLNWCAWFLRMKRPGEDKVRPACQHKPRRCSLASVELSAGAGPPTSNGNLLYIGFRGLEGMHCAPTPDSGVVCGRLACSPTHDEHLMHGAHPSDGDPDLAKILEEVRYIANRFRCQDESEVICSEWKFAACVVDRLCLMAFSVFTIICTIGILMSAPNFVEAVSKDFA

T1 sequence (P31652 whole entry): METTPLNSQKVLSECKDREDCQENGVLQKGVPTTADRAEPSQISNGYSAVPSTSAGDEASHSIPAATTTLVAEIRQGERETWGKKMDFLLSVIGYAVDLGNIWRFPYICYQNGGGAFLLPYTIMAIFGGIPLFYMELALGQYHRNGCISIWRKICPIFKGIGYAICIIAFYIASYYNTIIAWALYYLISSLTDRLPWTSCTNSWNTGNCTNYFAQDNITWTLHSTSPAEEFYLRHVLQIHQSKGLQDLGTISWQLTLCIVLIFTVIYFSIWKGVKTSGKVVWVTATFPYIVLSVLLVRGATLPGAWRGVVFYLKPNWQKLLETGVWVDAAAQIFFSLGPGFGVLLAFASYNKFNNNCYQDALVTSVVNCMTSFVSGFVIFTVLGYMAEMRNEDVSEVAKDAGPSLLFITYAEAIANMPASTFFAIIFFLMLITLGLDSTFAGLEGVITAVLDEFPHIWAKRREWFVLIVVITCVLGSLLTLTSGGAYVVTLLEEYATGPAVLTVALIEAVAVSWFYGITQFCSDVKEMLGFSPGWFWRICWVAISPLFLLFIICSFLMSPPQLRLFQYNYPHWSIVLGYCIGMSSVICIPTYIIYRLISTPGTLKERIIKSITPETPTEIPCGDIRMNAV

Row | Structure (SMILES) | IC50 (serotonin transporter) [nM] | IC50 [1] [nM] | IC50 ([1]; rat cerebral cortex homogenate, 2 nM 3H-α-bungarotoxine, 2 hours at 37° C, read-out: Inhibition of 3H-α-Bungarotoxine Binding IC50) [nM]
1 | O=S1(=O)C(C2=CC3CCC(C2)N3)=Cc2ccccc21 (racemic) [Compound 1, (±)-3-(2-Benzo[b]thiophenyl-1,1-dioxide)-8-H-8-azabicyclo[3.2.1]oct-2-ene fumaric acid salt] | 190 |  | 
2 | CN1C2C=C(C3=Cc4ccccc4S3(=O)=O)CC1CC2 (racemic) [Compound 2, (±)-3-2-Benzo[b]thiophenyl-1,1-dioxide)-8-methyl-8-azabicyclo[3.2.1]oct-2-ene fumaric acid salt] | 660 | 18 | 
3 | C=CCN1C2C=C(C3=Cc4ccccc4S3(=O)=O)CC1CC2 (racemic) [Compound 3, (±)-3-(2-Benzo[b]thiophenyl-1,1-dioxide)-8-allyl-8-azabicyclo[3.2.1]oct-2-ene] |  |  | 850
